Numbers after ± are expanded uncertainties.

This passage reports electrical conductivity, mass density and viscosity results from the NIST ThermoML archive (doi:10.1016/j.fluid.2015.03.003).

The conditions of this data set: 298.15 K, 101.33 kPa, Liquid; for electrical conductivity: Alternating current cell with electrodes; for mass density: Pycnometric method; for viscosity: Vibrating wire viscometry.

With `CCCCn1cc[n+](CCCC)c1.[Br-]` [1,3-dibutylimidazolium bromide], the electrical conductivity worked out at 0.918 ± 0.006 S/m; the mass density (as a rule, mass per unit of volume) stood at 1200 ± 560 kg/m3; the viscosity (commonly the resistance of a fluid to flow) is on record as 11.1 ± 1.8 mPa·s.
Turning to `CC(C)Cn1cc[n+](CC(C)C)c1.[Br-]` [1,3-diisobutylimidazolium bromide], the electrical conductivity was determined as 0.403 ± 0.006 S/m, the mass density was 1250 ± 610 kg/m3 and the viscosity is 67.6 ± 13 mPa·s.
For the compound `CCCCn1cc[n+](C)c1.[Br-]` [1-butyl-3-methylimidazolium bromide], the electrical conductivity worked out at 0.08 ± 0.01 S/m, the mass density came out at 1230 ± 330 kg/m3 and the viscosity came to 363 ± 110 mPa·s.
As to `CC(C)Cn1cc[n+](C)c1.[Br-]` [1-isobutyl-3-methylimidazolium bromide], the electrical conductivity worked out at 0.2 ± 0.004 S/m, the mass density is recorded as 1260 ± 340 kg/m3 and the viscosity amounted to 134 ± 28 mPa·s.
